In publication PMC9104013, “Role of Polyamine-Induced Dimerization of Antizyme in Its Cellular Functions” (International Journal of Molecular Sciences, 2022):
Read-outs that look alike come from different tables or passages of the source.

Tests used:
mouse OAZ1 (mOAZ1) = biological target: T1, mouse OAZ1 (mOAZ1) (Mus musculus, UniProt P54369); assay: Isothermal titration calorimetry of polyamines binding to mOAZ1; settings: for ΔH (enthalpy variation) / Ka (affinity constant): pH 7.5; for ΔH (enthalpy variation): SD did not exceed ±20%; for Ka (affinity constant): SD did not exceed ±25%; for TΔS (entropy variation): calculated from TΔS = ΔH + RTlnKa; for Binding to mOAZ1: under the conditions used
T1 construct: Full-length mOAZ1 protein was successfully produced in E. coli; made in house; host or cells: Escherichia coli Rosetta (DE3)
Procedure: For the precise isothermal titration calorimetry (ITC) experiments only freshly purified samples turned out to be suitable. The thermodynamic parameters of polyamines binding to OAZ1 were measured using a MicroCal iTC200 instrument (GE Healthcare, Chicago, IL, USA) as described elsewhere. Experiments were carried out at 31 °C in buffer containing 25 mM potassium phosphate, pH 7.5; 150 mM KCl; 25% (v/v) glycerol; 1 mM 2-mercaptoethanol; and 1 mM PMSF. Aliquots (2.5 μL) of ligands were injected into a 0.2 mL cell containing the protein solution to achieve a complete binding isotherm. Protein and ligand concentrations were 20 μM and 200 μM, respectively. The heat of dilution was measured by injection of the ligand into the buffer solution or by additional injections of ligand after saturation; the values obtained were subtracted from the heat of reaction to obtain the effective heat of binding. The resulting titration curves were fitted using the MicroCal Origin software, assuming one set of binding sites. Affinity constants (Ka) and enthalpy variations (ΔH) were determined, and the entropy variations (ΔS) were calculated from the equation: TΔS = ΔH + RTlnKa.

[1] = biological target: T2, recombinant mOAZ1 protein (Mus musculus, UniProt P54369); assay: Electrophoresis of mOAZ1-Polyamine complex (0.01% SDS in running buffer); type: binding; settings: 200 μM polyamine, 30 min, 20 °C, pH 7.5
T2 construct: Full-length mOAZ1 protein was successfully produced in E. coli; made in house; host or cells: Escherichia coli Rosetta (DE3)
Procedure: The recombinant mOAZ1 protein (1 μg/band) was incubated with 200 μM of a polyamine at room temperature for 30 min. Then the sample was quenched with a loading buffer (200 mM Tris-HCl, pH 6.8, 0.01% bromophenol blue, and 40% glycerol) and applied onto 12% polyacrylamide gel lacking SDS. Electrophoresis was carried out in a running buffer with decreased SDS concentration (25 mM Tris base; 250 mM glycine; and 0.01% SDS) at 70 V. The gel was stained with Coomassie R-250.

[2] = tested on: transgenic rats with activated polyamine catabolism; parameters: method as in PMID 12181316, PMID 19956991, PMID 20453551; settings: cited from earlier work
OAZ1 protein = OAZ1 protein levels in DU145 cells (Western blotting); type: cell-based; settings: 4 h, 100 μM, MG132 25 μM
Procedure: Figure 3 2-MeSpd is the weakest inducer of OAZ1 synthesis and the weakest downregulator of ODC in DU145 cells. (A) Uptake of Spd and its analogues in CHX-treated DU145 cells. After 2 h preincubation with CHX (100 µg/mL), the compounds (100 µM) were added, and incubation continued for 4 h before the analysis of the intracellular analogue concentration. (B) Uptake of Spd and its analogues in OAZ1-overexpressing DU145 cells. OAZ1 was induced by 24 h preincubation with DOX (250 ng/mL). The compounds (100 µM) were added for further 6 h before the analysis of intracellular analogue concentration. (C) Effect of Spd and the analogues on OAZ1 protein levels in DU145 cells. The cells were incubated for 4 h with 100 μM analogues in the presence of the proteasomal inhibitor, MG132 (25 μM). (D) Effect of Spd and the analogues on ODC activity in DU145 cells. […]
Polyamines were measured with HPLC according to the published method. Acid-precipitated pellets were dissolved to 0.1 M NaOH, and the amount of DNA was measured using the PicoGreen reagent (Invitrogen) according to manufacturer’s instructions using dilutions of calf thymus DNA (Sigma-Aldrich) as standard curve. Protein concentrations were measured using Bio-Rad protein kit with dilutions of bovine serum albumin (Bio-Rad, Hercules, CA, USA) as standards. ODC activities were measured from the cytosolic fractions as described earlier. […]

[3] = tested on: polyamine uptake in OAZ1-overexpressing DU145 cells; assay: [14C]-Put and -Spd uptake in OAZ1-overexpressing DU145 cells; type: cell-based; settings: DFMO 5 mM 3 days, DOX 1 μg/mL 2 days, analogue 100 μM 4 h with APCHA 50 μM, AG 1 mM; 20 min uptake
Procedure: OAZ1-overexpressing DU145 cells were plated onto 6-well plates and incubated overnight. The cells were first treated with DFMO (5 mM) for 3 days, after which DOX (1 μg/mL) was added for further 2 days to induce OAZ1 overexpression. Then, AG (1 mM), APCHA (50 μM), and Spd/analogue (100 μM) were added for 4 h. The plates were washed with warm DMEM and incubated for 20 min in [^14C]-Put or [^14C]-Spd labeling mix (10 μM Put/Spd, specific activity 25 mCi/mmol, in DMEM). The plates were washed twice with ice-cold PBS and lysed to 0.5 mL of 0.1 M NaOH. An aliquot was taken for measurement of ^14C radioactivity, and the counts were normalized to total protein in the sample.

[4] = ITC, read-out: Kd of complex with mOAZ1
[5] = calculated as 1/Ka, no binding = not detected, Kd > 50 μM not detectable, read-out: Kd (dissociation constant)

T1 sequence (P54369 whole entry): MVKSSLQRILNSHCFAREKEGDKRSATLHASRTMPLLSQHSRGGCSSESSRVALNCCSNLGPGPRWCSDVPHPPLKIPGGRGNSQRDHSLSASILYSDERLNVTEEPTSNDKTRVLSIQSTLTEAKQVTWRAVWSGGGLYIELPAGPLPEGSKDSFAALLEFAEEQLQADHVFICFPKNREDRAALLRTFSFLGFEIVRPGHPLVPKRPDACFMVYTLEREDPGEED
T2 sequence (P54369 whole entry): as above

SMILES | ΔH (enthalpy variation) (mouse OAZ1 (mOAZ1); ITC, 31 °C) | Ka (affinity constant) (mouse OAZ1 (mOAZ1); ITC, 31 °C) | Kd (mouse OAZ1 (mOAZ1); [4]) | Kd (mouse OAZ1 (mOAZ1); [5]) | TΔS (entropy variation) (mouse OAZ1 (mOAZ1)) | Formation of (mOAZ1)2-Polyamine complex / dimerization [1] | Acute pancreatitis [2] | Liver regeneration [2] | Stoichiometry mOAZ1/Polyamine (mouse OAZ1 (mOAZ1); ITC, 31 °C, pH 7.5, 150 mM KCl, 25% glycerol, protein 20 μM, ligand 200 μM) | Binding to mOAZ1 (mouse OAZ1 (mOAZ1); ITC) | Kd (dissociation constant) (mouse OAZ1 (mOAZ1); calculated as 1/Ka, no binding = not detected, Kd > 50 μM not detectable) | OAZ1 protein level induction (OAZ1 protein) | Downregulation of [^14C]-Put uptake [3] | Downregulation of [^14C]-Spd uptake [3]
CC(N)CCNCCCCN (centres unmarked) [1-MeSpd] | -2.2 kcal/mol | 540000 M⁻¹ | ~1000 nM | 1900 nM | 5.8 kcal/mol | dimeric and monomeric complexes | prevented acute pancreatitis | restored liver regeneration | – | – | – | – | – | –
CC(CN)CNCCCCN (centres unmarked) [2-MeSpd] | No binding ^f | No binding ^f | – | – | No binding ^f | only the band corresponding to mOAZ1 itself was observed | – | – | No binding ^f | not detected | No binding ^f | only marginally induced | weakest downregulation | weakest downregulation
CC(CCN)NCCCCN (centres unmarked) [3-MeSpd] | -1.2 kcal/mol | 400000 M⁻¹ | ~1000 nM | 2500 nM | 6.6 kcal/mol | dimeric and monomeric complexes | – | – | – | – | – | – | – | –
NCCCCNCCCN [Spd, spermidine] | -3.3 kcal/mol | 280000 M⁻¹ | ~1000 nM | 3600 nM | 4.2 kcal/mol | induce dimerization of OAZ1 | – | – | – | bound to mOAZ1 | – | clear induction | – | –
